Series [1] in a line: Aqueous solubility of the compound by lyophilisate solubility assay. The settings on record: buffer. In kind it is physicochemical.
The nature of series [2]: Metabolic stability in human liver microsomes. The settings on record: read-out: Stability. The format is ADME, Microsome. Background: Liver microsomes are a subcellular fraction often used to study metabolism.
The next series has as its system Liver microsomes. As to the kind of experiment: Metabolic stability in human liver microsomes assessed as GSH adduct formation. In kind it is ADME, Microsome.
Series [3] can be described thus: Metabolic stability in rat liver microsomes. The format is ADME, Microsome. The settings on record: read-out: Stability.

SMILES strings stand for the structures. Values after ≈ are worked out from the molar mass of the structure shown.

On to `NC(=O)c1cnc(N[C@@H]2CCCC[C@@H]2N)nc1Nc1cccc(-n2nccn2)c1`, for which the solubility (as a rule, the concentration that dissolves in the medium under given conditions) in series [1] was under 1 µg/mL. In addition, the CLhep predicted in series [2] was 3 mL/min/kg; in series [3] it was 10 mL/min/kg. Moreover, the Stability result with Liver microsomes is “Stable”.
Consider `COc1ccc(Nc2nc(-c3cccc(C(=O)Nc4ccc(C(=O)O)cc4)c3)nc3scnc23)cc1OC`, for which, in series [1], the solubility was under 1 µg/mL.
Molecule `Cn1nc(-c2cnc3[nH]cc(C(=O)NC(C)(C)C)c3n2)c2cc(OC(F)F)ccc21` gave a solubility in series [1] of under 1 µg/mL. Moreover, the CLhep predicted in series [2] is 18 mL/min/kg; in series [3], 51 mL/min/kg.
`CC(C)(C)NC(=O)c1c[nH]c2ncc(-c3n[nH]c4ccc(OC(F)F)cc34)nc12`: the solubility in series [1] is under 1 µg/mL. In addition, the CLhep predicted was 10 mL/min/kg in series [2] and 30 mL/min/kg in series [3]. For the same molecule, in the series with Liver microsomes, the Stability entry is recorded as “Stable”.
In series [1], `CC(C)(C)NC(=O)c1c[nH]c2ncc(-c3n[nH]c4c(CO)cccc34)nc12` showed a solubility of under 1 µg/mL. Further, the CLhep predicted in series [2] was 7 mL/min/kg; in series [3] it was 51 mL/min/kg.
For the molecule `CN(C)CCCn1nc(-c2cnc3[nH]cc(C(=O)NC(C)(C)C)c3n2)c2cc(OC(F)F)ccc21`, the solubility in series [1] was under 1 µg/mL. Further, the values for the CLhep predicted in series [2] and in series [3] were 9 mL/min/kg and 46 mL/min/kg, respectively. Further, the Stability entry with Liver microsomes is “Stable”.
For the molecule `CN(C)CCCn1nc(-c2cnc3[nH]cc(C(=O)NC(C)(C)CO)c3n2)c2cc(OC(F)F)ccc21`, in series [1], the concentration in solution (solubility) was 586 µg/mL (≈ 1170 µM). The CLhep predicted is 12 mL/min/kg in series [2] and 41 mL/min/kg in series [3].
`CC(C)(C)NC(=O)c1c[nH]c2ncc(-c3nn(CCC(O)CO)c4ccc(OC(F)F)cc34)nc12` (stereo unspecified) gave a solubility in series [1] of under 1 µg/mL. The CLhep predicted in series [2] is 8 mL/min/kg; in series [3], 49 mL/min/kg.
On the same counts, the results for `CC(C)(C)NC(=O)c1c[nH]c2ncc(-c3nn(CCCS(C)(=O)=O)c4cc(F)ccc34)nc12` are under 1 µg/mL, 8 mL/min/kg and 43 mL/min/kg.
For `CC(C)(C)NC(=O)c1c[nH]c2ncc(-c3nn(CCC(O)CO)c4cc(F)ccc34)nc12` (stereo unspecified), the solubility in series [1] is under 1 µg/mL. Moreover, the CLhep predicted in series [2] is 4 mL/min/kg; in series [3], 23 mL/min/kg.
`CC(C)(C)NC(=O)c1c[nH]c2ncc(-c3nn(C4CCNCC4)c4cc(F)ccc34)nc12`: in series [1], the solubility is under 1 µg/mL. Moreover, the CLhep predicted in series [2] is 3 mL/min/kg; in series [3], 6 mL/min/kg. Moreover, the Stability entry in the series on Liver microsomes is “Stable”.
`CC(C)NC(=O)c1c[nH]c2ncc(-c3nn(C)c4c3CC(C)(C)CC4)nc12` gave a solubility in series [1] of under 1 µg/mL. Besides, the CLhep predicted in series [2] is 19 mL/min/kg; in series [3] it was 50 mL/min/kg.
For `COc1ccc2cnn(-c3cnc4[nH]cc(C(=O)NC(C)(C)C)c4n3)c2c1`, in that order: under 1 µg/mL, 11 mL/min/kg and 37 mL/min/kg.
In series [1], `CC(C)(CO)NC(=O)c1c[nH]c2ncc(-n3ncc4ccc(Cl)cc43)nc12` had a solubility of under 1 µg/mL. Further, the CLhep predicted in series [2] is 14 mL/min/kg; in series [3] it was 35 mL/min/kg. For the same molecule, in the series with Liver microsomes, the Stability result is recorded as “Stable”.
For the molecule `C[C@@H](CO)NC(=O)c1c[nH]c2ncc(-c3nn(C)c4cc(Cl)ccc34)nc12`, the solubility in series [1] is under 1 µg/mL. Also, the CLhep predicted in series [2] was 16 mL/min/kg; in series [3] it was 47 mL/min/kg. The Stability result with Liver microsomes was “Stable”.
As for `Cn1nc(-c2cnc3[nH]cc(C(=O)N[C@H]4C[C@H](O)C4)c3n2)c2ccc(F)cc21`, in series [1], the solubility is under 1 µg/mL. The CLhep predicted in series [2] was 17 mL/min/kg; in series [3] it was 43 mL/min/kg.
For `COc1cc(Nc2ncc(F)c(Nc3ccc4c(n3)N(COP(=O)(O)O)C(=O)C(C)(C)O4)n2)cc(OC)c1OC` [FOSTAMATINIB], the solubility in series [1] is under 1 µg/mL. The figures for the CLhep predicted in series [2] and in series [3] were 18 mL/min/kg and 47 mL/min/kg, respectively. Further, the Stability entry in the series with Liver microsomes is “Unstable”.
